Literature values in paper PMC12375981 (Protein Science : A Publication of the Protein Society, 2025).
Marks after values point to notes of the source that are not given here.

Experiments:
SARS‐CoV‐2 3CL^pro = conditions: cited from earlier work
WT 3CL^pro = WT 3CL^pro (Severe acute respiratory syndrome coronavirus 2, UniProt P0DTD1); conditions: cited from earlier work

Row | Compound | increase of the strength of dimerization (SARS‐CoV‐2 3CL^pro) | K D ^app (WT 3CL^pro)
1 | CC(C)(C)[C@H](NC(=O)C(F)(F)F)C(=O)N1C[C@H]2[C@@H]([C@H]1C(=O)N[C@H](C#N)C[C@@H]1CCNC1=O)C2(C)C [nirmatrelvir] | about seven | –
2 | COc1cccc2[nH]c(C(=O)N[C@@H](CC(C)C)C(=O)N[C@@H](C[C@@H]3CCNC3=O)C(=O)COP(=O)(O)O)cc12 [lufotrelvir] | – | 17 ± 2 ^b nM
